Source: ChEMBL document CHEMBL3425471, “Design, synthesis and biological evaluation of novel pyrazoline-containing derivatives as potential tubulin assembling inhibitors” (Eur J Med Chem, 2015)

Assays:
HepG2 [1] = assay: Induction of apoptosis in human HepG2 cells assessed as late apoptotic cells at 0.01 uM after 24 hrs by AnnexinV-FITC/PI staining based flow cytometry (reference value: 1.49%); assay type: functional
HepG2 [2] = assay: Cell cycle arrest in human HepG2 cells assessed as accumulation of cells at G2 phase of cell cycle at 0.05 uM after 48 hrs by propidium iodide staining based flow cytometry (reference value: 5.09%); assay type: functional
HepG2 [3] = assay: Induction of apoptosis in human HepG2 cells assessed as necrotic cells at 0.01 uM after 24 hrs by AnnexinV-FITC/PI staining based flow cytometry (reference value: 1.63%); assay type: functional
HepG2 [4] = assay: Induction of apoptosis in human HepG2 cells assessed as viable cells at 0.03 uM after 24 hrs by AnnexinV-FITC/PI staining based flow cytometry (reference value: 93.0%); assay type: functional; settings: HepG2, 24 h, read-out: Activity
HepG2 [5] = assay: Cell cycle arrest in human HepG2 cells assessed as accumulation of cells at S phase of cell cycle at 0.01 uM after 48 hrs by propidium iodide staining based flow cytometry (reference value: 19.71%); assay type: functional
HepG2 [6] = assay: Cell cycle arrest in human HepG2 cells assessed as accumulation of cells at G2 phase of cell cycle at 0.01 uM after 48 hrs by propidium iodide staining based flow cytometry (reference value: 5.09%); assay type: functional
MCF7 = assay: cells; settings: Homo sapiens, MCF7, 24 h
Description: Antiproliferative activity against human MCF7 cells assessed as reduction in cell viability after 24 hrs by MTT assay

HepG2 [7] = assay: Induction of apoptosis in human HepG2 cells assessed as late apoptotic cells at 0.03 uM after 24 hrs by AnnexinV-FITC/PI staining based flow cytometry (reference value: 1.49%); assay type: functional
HepG2 [8] = assay: Induction of apoptosis in human HepG2 cells assessed as early apoptotic cells at 0.03 uM after 24 hrs by AnnexinV-FITC/PI staining based flow cytometry (reference value: 3.89%); assay type: functional
HepG2 [9] = assay: Induction of apoptosis in human HepG2 cells assessed as early apoptotic cells at 0.01 uM after 24 hrs by AnnexinV-FITC/PI staining based flow cytometry (reference value: 3.89%); assay type: functional
HepG2 [10] = assay: Cell cycle arrest in human HepG2 cells assessed as accumulation of cells at G2 phase of cell cycle at 0.03 uM after 48 hrs by propidium iodide staining based flow cytometry (reference value: 5.09%); assay type: functional
HepG2 [11] = assay: Induction of apoptosis in human HepG2 cells assessed as early apoptotic cells at 0.05 uM after 24 hrs by AnnexinV-FITC/PI staining based flow cytometry (reference value: 3.89%); assay type: functional
HepG2 [12] = assay: Induction of apoptosis in human HepG2 cells assessed as viable cells at 0.05 uM after 24 hrs by AnnexinV-FITC/PI staining based flow cytometry (reference value: 93.0%); assay type: functional; settings: HepG2, 24 h, read-out: Activity
HepG2 [13] = assay: cells; settings: Homo sapiens, HepG2, 24 h
Description: Antiproliferative activity against human HepG2 cells assessed as reduction in cell viability after 24 hrs by MTT assay

HepG2 [14] = assay: Cell cycle arrest in human HepG2 cells assessed as accumulation of cells at S phase of cell cycle at 0.05 uM after 48 hrs by propidium iodide staining based flow cytometry (reference value: 19.71%); assay type: functional
HepG2 [15] = assay: Cell cycle arrest in human HepG2 cells assessed as accumulation of cells at S phase of cell cycle at 0.03 uM after 48 hrs by propidium iodide staining based flow cytometry (reference value: 19.71%); assay type: functional
HepG2 [16] = assay: Cell cycle arrest in human HepG2 cells assessed as accumulation of cells at G1 phase of cell cycle at 0.03 uM after 48 hrs by propidium iodide staining based flow cytometry (reference value: 75.2%); assay type: functional
HepG2 [17] = assay: Cell cycle arrest in human HepG2 cells assessed as accumulation of cells at G1 phase of cell cycle at 0.05 uM after 48 hrs by propidium iodide staining based flow cytometry (reference value: 75.2%); assay type: functional
HepG2 [18] = assay: Induction of apoptosis in human HepG2 cells assessed as necrotic cells at 0.05 uM after 24 hrs by AnnexinV-FITC/PI staining based flow cytometry (reference value: 1.63%); assay type: functional
HepG2 [19] = assay: Induction of apoptosis in human HepG2 cells assessed as necrotic cells at 0.03 uM after 24 hrs by AnnexinV-FITC/PI staining based flow cytometry (reference value: 1.63%); assay type: functional
HepG2 [20] = assay: Cell cycle arrest in human HepG2 cells assessed as accumulation of cells at G1 phase of cell cycle at 0.01 uM after 48 hrs by propidium iodide staining based flow cytometry (reference value: 75.2%); assay type: functional
HepG2 [21] = assay: Induction of apoptosis in human HepG2 cells assessed as viable cells at 0.01 uM after 24 hrs by AnnexinV-FITC/PI staining based flow cytometry (reference value: 93.0%); assay type: functional; settings: HepG2, 24 h, read-out: Activity
A549 = assay: cells; settings: Homo sapiens, A549, 24 h
Description: Antiproliferative activity against human A549 cells assessed as reduction in cell viability after 24 hrs by MTT assay

HepG2 [22] = assay: Induction of apoptosis in human HepG2 cells assessed as late apoptotic cells at 0.05 uM after 24 hrs by AnnexinV-FITC/PI staining based flow cytometry (reference value: 1.49%); assay type: functional
Tubulin = Tubulin (Bos taurus, UniProt Q6B856+Q862L2+Q862F3); assay: Inhibition of bovine brain tubulin polymerization after 20 mins by turbidimetric analysis

Compound: COc1ccc(C2=NN(C(=O)c3cc(OC)c(OC)c(OC)c3)C(c3ccc4c(c3)OCO4)C2)cc1 (stereo not given)
- Activity (HepG2 [1]): 1.92%
- Activity (HepG2 [2]): 52.2%
- Activity (HepG2 [3]): 1.75%
- viability at 0.03 µM (HepG2 [4]): 85%
- Activity (HepG2 [5]): 25.06%
- Activity (HepG2 [6]): 5.99%
- IC50 (MCF7): 50 nM
- Activity (HepG2 [7]): 2.52%
- Activity (HepG2 [8]): 8.72%
- Activity (HepG2 [9]): 5.12%
- Activity (HepG2 [10]): 50.11%
- Activity (HepG2 [11]): 13.4%
- viability at 0.05 µM (HepG2 [12]): 76.4%
- IC50 (HepG2 [13]): 30 nM
- Activity (HepG2 [14]): 13.14%
- Activity (HepG2 [15]): 14.28%
- Activity (HepG2 [16]): 35.62%
- Activity (HepG2 [17]): 34.65%
- Activity (HepG2 [18]): 4.86%
- Activity (HepG2 [19]): 3.76%
- Activity (HepG2 [20]): 68.96%
- viability at 0.01 µM (HepG2 [21]): 91.2%
- IC50 (A549): 70 nM
- Activity (HepG2 [22]): 5.34%
- IC50 (Tubulin): 1880 nM
